Laboratory results as given in ChEMBL document CHEMBL1821708, “Piperazinyl quinolines as chemosensitizers to increase fluconazole susceptibility of Candida albicans clinical isolates” (Bioorg Med Chem Lett, 2011).
Converted amounts (≈) assume the structure as drawn.

Experiments:
Candida albicans [1] = assay: Growth inhibition of Candida albicans isolate CaCi-8 assessed as relative fungal growth in presence of Fluconazole after 48 hrs by Almar blue fluorometry; assay type: functional, organism-based; conditions: isolate CaCi-8, 48 h
Candida albicans [2] = assay: Growth inhibition of Candida albicans isolate CaCi-2 assessed as relative fungal growth in presence of Fluconazole after 48 hrs by Almar blue fluorometry; assay type: functional, organism-based; conditions: isolate CaCi-2, 48 h
Candida albicans [3] = assay: Growth inhibition of Candida albicans isolate CaCi-2 at 1 uM after 48 hrs by Almar blue fluorimetry in presence of fluconazole; assay type: functional; conditions: isolate CaCi-2, 48 h, read-out: GI
[4] = Inhibition of HSP90 signaling pathway in Candida albicans
Candida albicans [5] = assay: Growth inhibition of Candida albicans isolate CaCi-8 at 1 uM after 48 hrs by Almar blue fluorometry in presence of Fluconazole; assay type: functional; conditions: isolate CaCi-8, 48 h, read-out: GI
[6] = Aqueous solubility of the compound in phosphate buffered saline; assay type: physicochemical
[7] = Inhibition of calcineurin signaling pathway in Candida albicans
Candida albicans [8] = assay: Antifungal activity against Candida albicans CaCi-8 clinical isolate; assay type: functional
Candida albicans [9] = assay: Antifungal activity against Candida albicans CaCi-2 clinical isolate; assay type: functional

Q: With `Cc1ccc(C(=O)N2CCN(c3ccnc4cc(Cl)ccc34)CC2)cc1` as the compound, how does the IC50 (Candida albicans [1]) read?
A: Its IC50 is 3.1 µM.

Q: And the IC50 (Candida albicans [2])?
A: The IC50 was 2.3 µM.

Q: For `O=C(c1ccc(Cl)cc1)N1CCN(c2ccnc3cc(Cl)ccc23)CC1`, which IC50 (Candida albicans [1]) is on record?
A: Its IC50 is 1.3 µM.

Q: What about the IC50 (Candida albicans [2]) of the same compound?
A: Its IC50 is 0.7 µM.

Q: What about the inhibition of growth at 1 µM (Candida albicans [3]) of the same compound?
A: Its inhibition of growth at 1 µM is 97%.

Q: What about the IC50 [4] of the same compound?
A: Its IC50 is over 26 µM.

Q: What about the inhibition of growth at 1 µM (Candida albicans [5]) of the same compound?
A: Its inhibition of growth at 1 µM is 97%.

Q: What about the solubility ([6]; phosphate buffered saline, read-out: solubility) of the same compound?
A: Its solubility is under 5 µM.

Q: And the IC50 [7]?
A: Its IC50 is over 26 µM.

Q: Which results are given for `O=C(C1CCCCC1)N1CCN(c2ccnc3cc(Cl)ccc23)CC1`?
A: IC50 (Candida albicans [1]): 4 µM; IC50 (Candida albicans [2]): 1.7 µM

Q: With `COc1ccc(C(=O)N2CCN(c3ccnc4cc(Cl)ccc34)CC2)cc1` as the compound, how does the IC50 (Candida albicans [1]) read?
A: Its IC50 is 16.8 µM.

Q: What about the IC50 (Candida albicans [2]) of the same compound?
A: Its IC50 is 5.3 µM.

Q: For `O=C(c1ccc(F)cc1)N1CCN(c2ccnc3cc(Cl)ccc23)CC1`, which IC50 (Candida albicans [1]) is on record?
A: Its IC50 is 4.2 µM.

Q: What about the IC50 (Candida albicans [2]) of the same compound?
A: Its IC50 is 3.6 µM.

Q: What does the source list for `O=C(c1cccc(Cl)c1)N1CCN(c2ccnc3cc(Cl)ccc23)CC1`?
A: IC50 (Candida albicans [1]): 7.8 µM; IC50 (Candida albicans [2]): 4.4 µM

Q: For `O=C(c1ccccc1Cl)N1CCN(c2ccnc3cc(Cl)ccc23)CC1`, which IC50 (Candida albicans [1]) is on record?
A: Its IC50 is 14.1 µM.

Q: And the IC50 (Candida albicans [2])?
A: Its IC50 is 7.3 µM.

Q: What does the source list for `O=C(c1ccc(Cl)c(Cl)c1)N1CCN(c2ccnc3cc(Cl)ccc23)CC1`?
A: IC50 (Candida albicans [1]): 2.1 µM; IC50 (Candida albicans [2]): 1 µM

Q: Which IC50 (Candida albicans [1]) does the source give for `O=C(c1ccccc1)N1CCN(c2ccnc3cc(Cl)ccc23)CC1` here?
A: Its IC50 is 6.1 µM.

Q: What about the IC50 (Candida albicans [2]) of the same compound?
A: The IC50 was 4.4 µM.

Q: With `CCCC(=O)N1CCN(c2ccnc3cc(Cl)ccc23)CC1` as the compound, how does the IC50 (Candida albicans [1]) read?
A: Its IC50 is 15 µM.

Q: What about the IC50 (Candida albicans [2]) of the same compound?
A: Its IC50 is 6.3 µM.

Q: Which IC50 (Candida albicans [1]) does the source give for `CC(C)C(=O)N1CCN(c2ccnc3cc(Cl)ccc23)CC1` here?
A: Its IC50 is over 26 µM.

Q: What about the IC50 (Candida albicans [2]) of the same compound?
A: Its IC50 is 7.2 µM.

Q: Which IC50 (Candida albicans [1]) does the source give for `O=C(C1CCCC1)N1CCN(c2ccnc3cc(Cl)ccc23)CC1` here?
A: Its IC50 is 5.3 µM.

Q: And the IC50 (Candida albicans [2])?
A: Its IC50 is 3.6 µM.

Q: For `O=C(Nc1ccc(Cl)cc1)N1CCN(c2ccnc3cc(Cl)ccc23)CC1`, which IC50 (Candida albicans [1]) is on record?
A: The IC50 was 2.3 µM.

Q: What about the IC50 (Candida albicans [2]) of the same compound?
A: The IC50 was 4.2 µM.

Q: For `O=C(c1ccc(Cl)nc1)N1CCN(c2ccnc3cc(Cl)ccc23)CC1`, which IC50 (Candida albicans [1]) is on record?
A: The IC50 was 10.9 µM.

Q: And the IC50 (Candida albicans [2])?
A: Its IC50 is 6.7 µM.

Q: And the solubility ([6]; buffer)?
A: Its solubility is “soluble”.

Q: Which IC50 (Candida albicans [1]) does the source give for `O=C(c1ccc(Cl)cn1)N1CCN(c2ccnc3cc(Cl)ccc23)CC1` here?
A: The IC50 was 4.1 µM.

Q: What about the IC50 (Candida albicans [2]) of the same compound?
A: Its IC50 is 4.9 µM.

Q: And the solubility ([6]; buffer)?
A: The solubility was “soluble”.

Q: Which results are given for `O=C(c1csc2ccccc12)N1CCN(c2ccnc3cc(Cl)ccc23)CC1`?
A: IC50 (Candida albicans [1]): 4 µM; IC50 (Candida albicans [2]): 1.9 µM; solubility ([6]; buffer): soluble

Q: Which results are given for `O=C(c1ccc(Cl)cc1)N1CCN(c2ccnc3ccc(Cl)cc23)CC1`?
A: IC50 (Candida albicans [1]): 6.3 µM; IC50 (Candida albicans [2]): 2.4 µM

Q: Which results are given for `COc1ccc2c(N3CCN(C(=O)c4ccc(Cl)cc4)CC3)ccnc2c1`?
A: IC50 (Candida albicans [1]): 13.7 µM; IC50 (Candida albicans [2]): 4.8 µM

Q: For `Cc1cc(N2CCN(C(=O)c3ccc(Cl)cc3)CC2)c2ccccc2n1`, which IC50 (Candida albicans [1]) is on record?
A: The IC50 was over 26 µM.

Q: And the IC50 (Candida albicans [2])?
A: The IC50 was 7.3 µM.

Q: With `O=C(c1ccc(Cl)cc1)N1CCN(c2ccnc3ccccc23)CC1` as the compound, how does the IC50 (Candida albicans [1]) read?
A: The IC50 was 14.7 µM.

Q: And the IC50 (Candida albicans [2])?
A: Its IC50 is 5.7 µM.

Q: For `O=C(c1ccc(Cl)cc1)N1CCN(c2ccccn2)CC1`, which IC50 (Candida albicans [1]) is on record?
A: The IC50 was 24 µM.

Q: And the IC50 (Candida albicans [2])?
A: Its IC50 is over 10 µM.

Q: What does the source list for `O=C(c1ccc(Cl)cc1)N1CCN(c2cccnc2)CC1`?
A: IC50 (Candida albicans [1]): > 26 µM; IC50 (Candida albicans [2]): 7.3 µM

Q: What does the source list for `O=C(c1ccc(Cl)cc1)N1CCN(c2ccncc2)CC1`?
A: IC50 (Candida albicans [1]): > 26 µM; IC50 (Candida albicans [2]): 7.3 µM

Q: With `Cc1ccc(N2CCN(C(=O)c3ccc(Cl)cc3)CC2)nn1` as the compound, how does the IC50 (Candida albicans [1]) read?
A: Its IC50 is 20.6 µM.

Q: And the IC50 (Candida albicans [2])?
A: The IC50 was 8.5 µM.

Q: With `O=C(c1ccc(Cl)cc1)N1CCN(c2ncccn2)CC1` as the compound, how does the IC50 (Candida albicans [1]) read?
A: Its IC50 is 18.1 µM.

Q: What about the IC50 (Candida albicans [2]) of the same compound?
A: The IC50 was 7.1 µM.

Q: Which IC50 (Candida albicans [1]) does the source give for `O=C(c1ccc(Cl)cc1)N1CCN(c2cnccn2)CC1` here?
A: The IC50 was 22.2 µM.

Q: And the IC50 (Candida albicans [2])?
A: The IC50 was 9 µM.

Q: For `O=C(c1ccc(Cl)cc1)N1CCN(c2ncnc3ccccc23)CC1`, which IC50 (Candida albicans [1]) is on record?
A: Its IC50 is 11 µM.

Q: What about the IC50 (Candida albicans [2]) of the same compound?
A: The IC50 was 4.8 µM.

Q: What does the source list for `O=C(c1ccc(Cl)cc1)N1CCN(c2nc3ccccc3s2)CC1`?
A: IC50 (Candida albicans [1]): 10.8 µM; IC50 (Candida albicans [2]): 5.5 µM

Q: With `Cn1ccnc1N1CCN(C(=O)c2ccc(Cl)cc2)CC1` as the compound, how does the IC50 (Candida albicans [1]) read?
A: The IC50 was over 26 µM.

Q: What about the IC50 (Candida albicans [2]) of the same compound?
A: Its IC50 is 6.2 µM.

Q: For `O=C(c1ccc(Cl)cc1)N1CCN(c2nccs2)CC1`, which IC50 (Candida albicans [1]) is on record?
A: Its IC50 is 18.9 µM.

Q: What about the IC50 (Candida albicans [2]) of the same compound?
A: The IC50 was 6.9 µM.

Q: What does the source list for `O=C(c1ccc(Cl)cc1)N1CCN(c2ccc(Cl)cc2)CC1`?
A: IC50 (Candida albicans [1]): 19 µM; IC50 (Candida albicans [2]): 8.7 µM

Q: For `OC(Cn1cncn1)(Cn1cncn1)c1ccc(F)cc1F` [FLUCONAZOLE], which MIC (Candida albicans [8]) is on record?
A: The MIC was 26 µM (≈ 7.96 µg/mL).

Q: What about the MIC (Candida albicans [9]) of the same compound?
A: The MIC was 6.5 µM (≈ 1.99 µg/mL).
